{"source": "patent US20120184751A1", "about": "“POLYMORPHIC FORM OF OLMESARTAN MEDOXOMIL” (RANBAXY LABORATORIES LIMITED, priority 2009, published 2012)", "origin": "cited, not measured here", "details": "75% relative humidity at 40° C. for one month", "data": [{"smiles": "CCCc1nc(C(C)(C)O)c(C(=O)OCc2oc(=O)oc2C)n1Cc1ccc(-c2ccccc2-c2nnn[nH]2)cc1", "note": "[amorphous olmesartan medoxomil, 2,3-dihydroxy-2-butenyl-4-(1-hydroxy-1-methylethyl)-2-propyl-1-[p-(o-1H-tetrazol-5-ylphenyl)benzyl]imidazole-5-carboxylate, cyclic 2,3-carbonate]", "values": [{"measurement": "solid-state stability / form conversion on storage", "result": "converts into hydrated olmesartan medoxomil having crystalline appearance"}]}]}
